Reference: US10753941B2, “Biocompatible nanoparticles with aggregation induced emission characteristics as fluorescent bioprobes and methods of using the same for in vitro and in vivo imaging” (The Hong Kong University of Science and Technology, priority 2011, dated 2020)
Like-named read-outs stand apart in the source and are kept apart here. Residues, ends and D or L forms follow the SMILES beside them. *: point of attachment. X1 = O=C(CCCc1cn(Cc2ccc(C(=C(c3ccccc3)c3ccccc3)c3ccccc3)cc2)nn1)*

Legend:
[1] = Water solubility / aggregation of probes in water (LLS, PL); assay type: physicochemical; conditions: for average diameter of nanoaggregates in water (LLS): DMSO/water v/v=1:199, 10 μM
Source text: FIG. 32A illustrates the UV-vis absorption spectra of BATPS (5) and TPS-2cRGD. Both have a similar absorption profile with the maximum at 356 nm. The corresponding photoluminescence (PL) spectra are shown in FIG. 32B, along with the photographs taken under UV irradiation. It is known that AIE fluorogens are virtually non-fluorescent in good solvents but emit intensely when aggregated in poor solvents.
It is well known that AIE dye is virtually non-luminescent in good solvents but emits intensely when aggregated in its poor solvents. […] The excited states are readily annihilated by the intramolecular rotations of phenyl rings. Therefore, very low fluorescence was observed.

[2] = target: T1, caspase-3 (Homo sapiens, UniProt P42574); assay: Caspase-3 turn-on and hydrolysis of E/Z-TPE-2DEVD; assay type: biochemical
T1 construct: purchased R&D Systems
T1 sequence (P42574 29-175 limits assumed): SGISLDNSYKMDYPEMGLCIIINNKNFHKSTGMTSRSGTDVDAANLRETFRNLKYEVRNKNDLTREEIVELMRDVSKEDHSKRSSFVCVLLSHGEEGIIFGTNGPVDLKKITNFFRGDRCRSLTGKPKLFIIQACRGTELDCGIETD
T1 sequence (P42574 176-277 limits assumed): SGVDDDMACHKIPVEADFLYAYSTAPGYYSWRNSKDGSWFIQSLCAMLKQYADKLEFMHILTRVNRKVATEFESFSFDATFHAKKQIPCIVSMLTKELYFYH
Procedure: Both have a similar absorption profile with an obvious absorbance in the 270-380 nm range.
The enzyme kinetic studies by incubating recombinant caspase-3 with E/Z-TPE-2DEVD in buffer at 37° C. were subsequently performed, and the changes in probe hydrolysis were monitored with HPLC. DMSO stock solutions of TPE-2DEVD were diluted with caspase-3assay buffer (50 mM PIPES, 100 mM NaCl, 1 mM EDTA, 0.1% w/v CHAPS, 25% w/v sucrose, pH=7.2) to make 10 μM working solutions. 5 μL of the recombinant caspase-3 (˜0.04 μg/μL stock solution in assay buffer) was added into the above working solution. The reaction mixture was incubated at room temperature for 60 min and was then diluted to a total of 300 μL with deionized water for photoluminescence measurement. The solution was excited at 312 nm, and the emission was collected from 360 to 600 nm.

[3] = tested on: HT-29 cells; assay: Real-time uptake imaging of TPS-2cRGD; assay type: cell-based; conditions: 2 μM, room temperature
Procedure: HT-29 cells were cultured in the 8-wells chambers (LAB-TEK, Chambered Coverglass System) at 37° C. After 80% confluence, the adherent cells were washed twice with 1×PBS buffer. The TPS-2cRGD solution (2 μM, 0.3 mL) and a small amount of membrane tracker were then added to the chamber. The chambers were placed on the microscope platform immediately and the microscope focused on a collection of cells. The fluorescence images (405 nm excitation and with a band pass 505-525 nm filter for the probe, and 543 nm excitation with a band pass 575-635 nm filter for the membrane tracker) acquired every 5 min.

[4] = tested on: lysozyme, papain, trypsin and BSA; assay: Titration of TPS-2cRGD with other proteins (selectivity); assay type: binding; conditions: 100 μg mL^−1 protein
Procedure: (§1) 5 μL of the protein stock solution was diluted with 40 μL of 1×PBS buffer (pH 7.4). 5 μL of TPS-2cRGD (10 μM) was then added and the reaction mixture was incubated at room temperature for 30 min. The reaction mixture was then diluted to a total of 300 μL with deionized water for photoluminescence measurement. The solution was excited at 356 nm, and the emission was collected from 380 to 650 nm.

[5] = target: T2, human integrin αvβ3 (Homo sapiens, UniProt P05106+P06756); assay: Titration of TPS-2cRGD with integrin (fluorescence turn-on); assay type: binding
T2 construct: purchased ImmunoCell
T2 sequence (P06756 31-1048): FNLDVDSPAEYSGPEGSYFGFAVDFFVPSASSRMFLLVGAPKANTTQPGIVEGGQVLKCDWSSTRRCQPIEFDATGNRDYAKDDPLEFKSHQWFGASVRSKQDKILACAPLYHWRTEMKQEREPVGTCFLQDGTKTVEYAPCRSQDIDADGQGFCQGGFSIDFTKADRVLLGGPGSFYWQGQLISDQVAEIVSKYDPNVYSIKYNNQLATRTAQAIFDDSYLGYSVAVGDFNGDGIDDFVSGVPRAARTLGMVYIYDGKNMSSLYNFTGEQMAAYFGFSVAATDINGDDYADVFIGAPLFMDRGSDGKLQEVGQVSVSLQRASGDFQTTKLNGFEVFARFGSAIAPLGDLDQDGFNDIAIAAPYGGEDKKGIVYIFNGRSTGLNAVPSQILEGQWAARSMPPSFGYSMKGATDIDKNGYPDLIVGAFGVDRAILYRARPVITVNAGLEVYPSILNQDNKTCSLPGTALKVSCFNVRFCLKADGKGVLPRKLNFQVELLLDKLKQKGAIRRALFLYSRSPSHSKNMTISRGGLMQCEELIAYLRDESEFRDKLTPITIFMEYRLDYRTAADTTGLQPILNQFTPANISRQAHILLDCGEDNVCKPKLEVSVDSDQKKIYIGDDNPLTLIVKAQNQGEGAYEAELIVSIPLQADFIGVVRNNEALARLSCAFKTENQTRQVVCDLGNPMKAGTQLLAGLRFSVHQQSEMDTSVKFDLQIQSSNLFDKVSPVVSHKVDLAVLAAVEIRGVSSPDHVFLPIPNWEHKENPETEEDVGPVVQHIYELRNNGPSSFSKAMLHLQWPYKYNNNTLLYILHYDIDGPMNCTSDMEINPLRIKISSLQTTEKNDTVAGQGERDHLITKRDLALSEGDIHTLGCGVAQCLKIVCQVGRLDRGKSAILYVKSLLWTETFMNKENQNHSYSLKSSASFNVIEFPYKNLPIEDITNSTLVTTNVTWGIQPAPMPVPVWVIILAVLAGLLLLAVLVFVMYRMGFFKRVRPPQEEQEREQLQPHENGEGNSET
T2 sequence (P05106 27-788): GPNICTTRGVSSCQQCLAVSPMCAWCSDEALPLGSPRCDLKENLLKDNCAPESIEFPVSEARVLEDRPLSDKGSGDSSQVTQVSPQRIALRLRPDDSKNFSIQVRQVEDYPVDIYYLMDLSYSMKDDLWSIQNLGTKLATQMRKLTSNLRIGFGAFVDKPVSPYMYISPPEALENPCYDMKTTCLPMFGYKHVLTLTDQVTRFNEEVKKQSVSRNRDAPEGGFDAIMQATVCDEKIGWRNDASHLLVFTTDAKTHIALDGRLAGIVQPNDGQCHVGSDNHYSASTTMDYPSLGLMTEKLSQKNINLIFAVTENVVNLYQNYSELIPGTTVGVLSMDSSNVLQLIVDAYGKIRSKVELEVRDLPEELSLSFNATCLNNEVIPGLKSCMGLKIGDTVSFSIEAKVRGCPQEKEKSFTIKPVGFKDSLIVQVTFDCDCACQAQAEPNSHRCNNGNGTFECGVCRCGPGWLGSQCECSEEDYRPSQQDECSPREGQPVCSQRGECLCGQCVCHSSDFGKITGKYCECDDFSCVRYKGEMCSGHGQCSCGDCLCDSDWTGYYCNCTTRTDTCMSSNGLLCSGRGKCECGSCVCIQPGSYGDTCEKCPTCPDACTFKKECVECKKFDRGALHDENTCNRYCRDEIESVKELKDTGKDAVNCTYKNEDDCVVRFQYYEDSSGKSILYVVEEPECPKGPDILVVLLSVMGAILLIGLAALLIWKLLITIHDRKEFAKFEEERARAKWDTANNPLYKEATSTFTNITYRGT
Procedure: as §1

[6] = tested on: MCF7 breast cancer cells with low integrin αvβ3 expression; assay: Confocal imaging at 4° C. with TPS-2cRGD; assay type: cell-based; conditions: 2 μM, 30 min
Procedure: (§2) Before the detection of integrin αvβ3, HT-29 and MCF-7 cells were cultured in the chambers (LAB-TEK, Chambered Coverglass System) at 37° C., respectively. After 80% confluence, the adherent cells were washed twice with 1×PBS buffer. The TPS-2cRGD solution (2 μM, 0.3 mL) was then added to the chamber. After incubation for 30 min at 4° C., cells were washed two times with 1×PBS buffer and then treated with membrane tracker for 10 min and further washed twice with 1×PBS buffer. The cells were then imaged immediately by confocal laser scanning microscope (CLSM, Zeiss LSM 410, Jena, Germany) with imaging software (Fluoview FV500). The images are analyzed by ImageJ 1.43× program (developed by NIH). The images were taken upon excitation at 405 nm (5% laser power) with a band pass 505-525 nm filter for the probe, and 543 nm (5% laser power) with a band pass 575-635 nm filter for the membrane tracker.

[7] = tested on: HT-29 colon cancer cells with overexpressed integrin αvβ3; assay: Confocal imaging at 4° C. with TPS-2cRGD; assay type: cell-based
Procedure: as §2

[8] = MTT cytotoxicity of TPS-2cRGD; assay type: cell-based; conditions: human, HT-29 cancer cells; 2, 5 and 10 μM for 12, 24 and 48 h; read-out: metabolic viability
Procedure: Methylthiazolyldiphenyl-tetrazolium (MTT) assays were used to assess the metabolic activity of HT-29 cancer cells to study the cytotoxicity of TPS-2cRGD. HT-29 cells were seeded in 96-well plates (Costar, Ill., USA) at an intensity of 4×10^4 cells mL^−1. After 24 h incubation, the medium was replaced by the TPS-2cRGD suspension at concentrations of 2, 5, and 10 μM, and the cells were then incubated for 12, 24 and 48 h, respectively. After the designated time intervals, the wells were washed twice with 1×PBS buffer and 100 μL of freshly prepared MTT (0.5 mg mL^−1) solution in culture medium was added into each well. The MTT medium solution was carefully removed after 3 h incubation in the incubator at 37° C. DMSO (100 μL) was then added into each well and the plate was gently shaken to dissolve all the precipitates formed. The absorbance of MTT at 570 nm was monitored by the microplate reader (Genios Tecan). Cell viability was expressed by the ratio of absorbance of the cells incubated with TPS-2cRGD suspension to that of the cells incubated with culture medium only.

[9] = tested on: MCF-7 cancer cells; assay: Long term cellular tracking with two-photon fluorescence imaging; assay type: cell-based; conditions: 1 μM, 4 h incubation; FTNPs two-photon 800 nm, MTR one-photon 560 nm
Procedure: The performance of FTNPs in MCF-7 cancer cell tracking was investigated and compared with that of commercial Mitotracker red (MTR).
MCF-7 breast cancer cells were cultured in Dulbecco's Modified Eagle Medium (DMEM) containing 10% fetal bovine serum and 1% penicillin streptomycin at 37° C. in a humidified environment containing 5% CO2.
Prior to the experiment, MCF-7 breast cancer cells were pre-cultured until confluence was reached. After incubation with FTNPs and Mitotracker red (MTR) in DMEM medium (FBS-free) at 1 μM T1 and MTR for 4 h at 37° C., respectively, the corresponding cells were detached by 1× tripsin and suspended in culture medium with different cell densities. The cells were then cultured on round coverslip in 35 mm petri dishes for 0, 1, 2, 3, 4 and 5 days, respectively. After designated time intervals, the medium was removed and the adherent cells were washed twice with 1×PBS buffer, followed by fixation using 75% ethanol for 20 minutes. The cells were further washed twice with 1×PBS buffer and the coverslips were then mounted on glass slides using mounting medium in purpose of long-term storage. […] The detection of two-photon excited fluorescence of FTNPs was achieved by excitation at 800 nm with a 600-800 nm bandpass filter. On the other hand, the one-photon excited fluorescence signal from MTR was collected with a 600-800 nm bandpass filter upon 560 nm excitation.

[10] = tested on: HeLa cells; assay: Apoptosis imaging in live cells with AcDEVDK-TPE; assay type: cell-based, human; conditions: 5 μM probe
Procedure: The cells were cultured in the chambers (LAB-TEK, Chambered Coverglass System) at 37° C., respectively. After 80% confluence, the adherent cells were washed twice with 1×PBS buffer. The AcDEVD-TPE solution (5 μM, 0.3 mL) was then added to the chamber. After incubation for 2 h at 37° C., cells were washed two times with 1×PBS buffer. To induce apoptosis, cells were incubated with 1.0 μM of staurosporine for 1 hr and then imaged immediately by confocal laser scanning microscope (CLSM, Zeiss LSM 410, Jena, Germany) with imaging software (Fluoview FV500). The images are analyzed by ImageJ 1.43× program (developed by NIH).

[11] = target: T3, caspase-7 (Homo sapiens, UniProt P55210); assay: Caspase turn-on assay of AcDEVDK-TPE; assay type: biochemical
T3 construct: purchased R&D Systems
T3 sequence (P55210 24-198 limits assumed): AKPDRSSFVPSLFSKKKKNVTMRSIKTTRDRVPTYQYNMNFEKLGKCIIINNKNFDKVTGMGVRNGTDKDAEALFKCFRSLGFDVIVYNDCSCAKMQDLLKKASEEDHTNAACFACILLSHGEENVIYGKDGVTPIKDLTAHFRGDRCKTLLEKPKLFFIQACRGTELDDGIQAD
T3 sequence (P55210 207-303 limits assumed): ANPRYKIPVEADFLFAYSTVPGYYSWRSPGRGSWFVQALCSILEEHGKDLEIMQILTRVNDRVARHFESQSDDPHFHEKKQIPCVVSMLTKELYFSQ
Source text: (§3) Cleavage of the peptide substrates AcDEVDK-TPE by caspase-3 or caspase-7 was monitored in quartz cells or in black flatbottom polypropylene 384-well plates (Nunc, USA). The corresponding concentrations of substrate and enzymes were used for each assay. Enzymatic cleavage of the substrates was monitored by fluorescence increase (excitation and emission wavelengths at 312 nm and 480 nm respectively) with on a Perkin-Elmer LS 55 spectrofluorometer or a Synergy TM 2 multi-mode microplate reader (Biotek Instruments).

[12] = target: T1, caspase-3; assay: Caspase turn-on assay of AcDEVDK-TPE; assay type: biochemical
Source text: as §3

[13] = tested on: BSA, HSA, Lysozyme, Pepsin and Trypsin; assay: Selectivity of AcDEVDK-TPE against other proteins; assay type: biochemical; conditions: 20 μg mL^−1 protein, 5 μM probe
Procedure: AcDEVDK-TPE was treated with five other enzymes which are widely present in cells, such as BSA, HSA, Lysozyme, Pepsin and Trypsin under the same conditions.

[14] = inferred from weak fluorescence / LLS

## C[Si]1(C)C(c2ccc(CN=[N+]=[N-])cc2)=C(c2ccccc2)C(c2ccccc2)=C1c1ccc(CN=[N+]=[N-])cc1 [BATPS, 1,1-dimethyl-2,5-bis[4-(azidomethyl)phenyl]-3,4-diphenylsilole]
[1]
  average diameter of nanoaggregates in water (LLS): 103 nm

## E-TPE-2DEVD: stereoisomer of Asp-Glu-Val-Asp (DEVD) peptide-conjugated TPE probe (TPE-2DEVD)
[1]; [14]
  solubility in water: good solubility in water
[2]; 10 μM probe, PIPES buffer, caspase-3 100 pM, 37° C.
  fluorescence turn-on with caspase-3: strong fluorescence signals
[2]; recombinant caspase-3 in buffer
  rate of enzyme activated hydrolysis (HPLC): faster

## C[Si]1(C)C(c2ccc(Cn3cc(C[C@@H]4NC(=O)[C@@H](Cc5ccccc5)NC(=O)[C@H](CC(=O)O)NC(=O)CNC(=O)[C@H](CCCNC(=N)N)NC4=O)nn3)cc2)=C(c2ccccc2)C(c2ccccc2)=C1c1ccc(Cn2cc(C[C@@H]3NC(=O)[C@@H](Cc4ccccc4)NC(=O)[C@H](CC(=O)O)NC(=O)CNC(=O)[C@H](CCCNC(=N)N)NC3=O)nn2)cc1 [TPS-2cRGD]
[1]
  average diameter of nanoaggregates in water (LLS): no detectable signal
[1]; [14]
  solubility in water: good solubility in water
[3]
  incubation time after which the probe is gradually internalized within cells: > 25 min
[4]
  change of PL intensity with other proteins: very little change of PL intensity
[5]; 10 μM probe, integrin 0 to 100 μg mL^−1
  fluorescence enhancement on incubation with integrin αvβ3: up to a seven-fold fluorescence enhancement
[5]; three times the standard deviation
  limit of detection for integrin αvβ3 in solution: 4 µg/mL
[6]
  fluorescent signal of live cells (CLSM): very weak fluorescence
[7]; 2 μM, 30 min, 4° C.
  fluorescent signal of live cells (CLSM): strong fluorescent signal
[7]; 10 μM cyclic RGD peptide, then 2 μM probe
  fluorescent signal after pre-treatment with free cyclic RGD peptide: significantly reduced
[8]
  viability: ~100%

## ClCc1ccc(C2=c3cc4c5c(c3Oc3c2cc2c6c3CCCN6CCC2)CCC[N+]=5CCC4)cc1.[Cl-] [MTR]
[9]
  time over which fluorescence in treated cells is sustained / detectable: 1 days

## CC(=O)N[C@@H](CC(=O)O)C(=O)N[C@@H](CCC(=O)O)C(=O)N[C@H](C(=O)N[C@@H](CC(=O)O)C(=O)N[C@@H](CCCCNC(=O)CCCc1cn(Cc2ccc(C(=C(c3ccccc3)c3ccccc3)c3ccccc3)cc2)nn1)C(N)=O)C(C)C [AcDEVDK-TPE] (Ac-DEVDK(X1)-NH2)
[10]
  fluorescence in nonapoptotic cells: very weak green fluorescence
[10]; apoptosis induced with staurosporine
  fluorescence in apoptotic cells: strong green fluorescence
[1]
  solubility in water: good solubility in water
[11]; 0 to 120 min
  fluorescence on incubation with caspase-7: time-dependent increase in fluorescence
[11]; 10 μM caspase inhibitor
  fluorescence with caspase-7 pretreated with inhibitor: no fluorescence turn-on
[12]; 0 to 120 min
  fluorescence on incubation with caspase-3: time-dependent increase in fluorescence
[12]; 5 μM probe, 200 pM caspase-3
  fluorescence enhancement with caspase-3: up to ten-fold fluorescence enhancement
[12]; 10 μM caspase inhibitor
  fluorescence with caspase-3 pretreated with inhibitor: no fluorescence turn-on
[13]
  change of PL intensity with other proteins: very little change of PL intensity
